Reference: patent US20230265151A1, “GIP/GLP1 CO-AGONIST COMPOUNDS” (priority 2020, published 2023)
Like-named read-outs stand apart in the source and are kept apart here. *1 amine or outer side, *2 acyl side, *3 side chain or, on linkers, in order; H or OH if unused. Where a SMILES comes first, the peptide text is derived from it. Side-chain parts run from the residue outwards. [ ]: non-standard residue; d: D form. The star is where a group is joined. Decanoyl(10-(4-HOOC-PhO)) = O=C(O)c1ccc(OCCCCCCCCCC(=O)*)cc1; αMePhe(2-F) = C[C@](N)(Cc1ccccc1F)C(=O)O; γGlu = O=C(O)[C@H](CCC(=O)[*:2])N[*:1]; αMeY = C[C@](N)(Cc1ccc(O)cc1)C(=O)O; αMeL = CC(C)C[C@](C)(N)C(=O)O; Orn = NCCC[C@H](N)C(=O)O; AEEA = NCCOCCOCC(=O)O; Aib = CC(C)(N)C(=O)O

Columns and labels:
Assay type in all cases: cell-based
hGCGR = target: T1, hGCGR (Homo sapiens, UniProt P47871); test: Functional cAMP formation (HTRF) in HEK-293 clonal cells expressing hGCGR, 0.1% bovine casein, without or with 1.0% human serum albumin
T1 construct: expressed in transfected cells
Method in brief: (§1)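 Readings of the HTRF 665/620 nm ratio, which falls as cAMP rises, were converted to nM cAMP using a standard curve after 30 min peptide exposure at 37° C.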

hGIPR = target: T2, hGIPR (Homo sapiens, UniProt P48546); test: Functional cAMP formation (HTRF) in HEK-293 clonal cells expressing hGIPR, 0.1% bovine casein, without or with 1.0% human serum albumin; settings: for EC50: geometric mean; for Emax: percent of maximal response to GIP(1-42)NH2
T2 construct: expressed in transfected cells
T2 sequence (P48546 22-466): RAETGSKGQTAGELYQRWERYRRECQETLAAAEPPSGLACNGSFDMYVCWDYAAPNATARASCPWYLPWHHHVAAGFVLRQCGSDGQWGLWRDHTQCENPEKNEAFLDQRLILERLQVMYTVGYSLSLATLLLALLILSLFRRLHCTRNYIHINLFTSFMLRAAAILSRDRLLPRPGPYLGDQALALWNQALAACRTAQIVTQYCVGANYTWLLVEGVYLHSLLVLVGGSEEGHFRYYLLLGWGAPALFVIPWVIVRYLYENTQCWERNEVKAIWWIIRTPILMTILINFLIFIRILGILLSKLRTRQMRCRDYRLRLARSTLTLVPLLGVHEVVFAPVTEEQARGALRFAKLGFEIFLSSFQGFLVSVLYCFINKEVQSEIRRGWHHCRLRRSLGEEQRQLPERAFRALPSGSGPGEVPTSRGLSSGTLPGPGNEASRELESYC
Method in brief: as §1

hGLP-1R = hGLP-1R (Homo sapiens, UniProt P43220); test: Functional cAMP formation (HTRF) in HEK-293 clonal cells expressing hGLP-1R, 0.1% bovine casein, without or with 1.0% human serum albumin; design: expressed in transfected cells
Method in brief: as §1

[1] = 0.1% bovine casein and 1.0% human serum albumin, 37° C., geometric mean, read-out: hGCGR EC50, nM (SEM, n)
[2] = HEK293, 0.1% bovine casein and 1.0% human serum albumin, 37° C., read-out: hGIPR Emax, % ± SEM
[3] = hGCGR EC50, nM (SEM, n), cAMP, 37° C., 0.1% bovine casein (no human serum albumin), geometric mean
[4] = hGCGR EC50, nM (SEM, n), cAMP, 37° C., 0.1% bovine casein and 1.0% human serum albumin, geometric mean (SEM, n)
[5] = HEK293, read-out: hGIPR Emax, % ± SEM, cAMP, 37° C., 0.1% bovine casein and 1.0% human serum albumin
[6] = HEK293, read-out: hGIPR Emax, % ± SEM, cAMP, 37° C., 0.1% bovine casein, arithmetic mean
[7] = hGIPR EC50, nM (SEM, n), cAMP, 37° C., 0.1% bovine casein (no human serum albumin)
[8] = hGLP-1R EC50, nM (SEM, n), cAMP, 37° C., 0.1% bovine casein (no human serum albumin), geometric mean

hGLP-1R, sequence (P43220 24-463): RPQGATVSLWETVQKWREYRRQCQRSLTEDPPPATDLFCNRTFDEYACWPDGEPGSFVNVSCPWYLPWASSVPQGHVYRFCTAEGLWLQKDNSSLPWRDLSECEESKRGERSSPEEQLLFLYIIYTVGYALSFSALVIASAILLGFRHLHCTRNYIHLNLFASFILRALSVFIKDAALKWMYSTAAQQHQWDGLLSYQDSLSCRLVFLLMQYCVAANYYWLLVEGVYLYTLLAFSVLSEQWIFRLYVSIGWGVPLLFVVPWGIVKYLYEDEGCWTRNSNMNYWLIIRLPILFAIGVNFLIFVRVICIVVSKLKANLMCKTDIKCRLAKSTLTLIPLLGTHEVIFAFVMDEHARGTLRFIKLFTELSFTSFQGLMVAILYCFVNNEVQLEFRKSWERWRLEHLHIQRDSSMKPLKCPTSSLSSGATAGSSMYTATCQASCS
T1 sequence (P47871 26-477): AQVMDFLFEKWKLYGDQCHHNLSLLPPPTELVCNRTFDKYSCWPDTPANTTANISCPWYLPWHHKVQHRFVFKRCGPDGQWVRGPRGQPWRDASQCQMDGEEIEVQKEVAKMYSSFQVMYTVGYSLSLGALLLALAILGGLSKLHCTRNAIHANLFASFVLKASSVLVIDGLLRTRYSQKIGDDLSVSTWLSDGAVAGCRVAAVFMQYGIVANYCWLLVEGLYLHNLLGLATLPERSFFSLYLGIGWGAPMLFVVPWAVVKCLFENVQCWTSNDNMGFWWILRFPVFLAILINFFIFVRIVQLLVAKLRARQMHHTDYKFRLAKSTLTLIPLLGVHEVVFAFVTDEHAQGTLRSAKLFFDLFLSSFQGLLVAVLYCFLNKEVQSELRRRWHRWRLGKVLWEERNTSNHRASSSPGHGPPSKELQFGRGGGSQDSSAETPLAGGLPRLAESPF

Structure (SMILES) | EC50 (hGCGR; [1]) | EC50 (hGCGR; cAMP, incubated at 37° C., 0.1% bovine casein (no human serum albumin), geometric mean, read-out: hGCGR EC50, nM (SEM, n)) | EC50 (hGIPR; 0.1% bovine casein and 1.0% human serum albumin, 37° C., read-out: hGIPR EC50, nM (SEM, n)) | Emax (hGIPR; [2]) | EC50 (hGLP-1R; 0.1% bovine casein and 1.0% human serum albumin, 37° C., geometric mean, read-out: hGLP-1R EC50, nM (SEM, n)) | Emax (hGLP-1R; HEK293, 0.1% bovine casein and 1.0% human serum albumin, 37° C., percent of maximal response to GLP-1(7-36)NH2, read-out: hGLP-1R Emax, % ± SEM) | Emax (hGLP-1R; HEK293, percent of maximal response to GLP-1(7-36)NH2, 37° C., 0.1% bovine casein, arithmetic mean, read-out: hGLP-1R Emax, % ± SEM) | EC50 (hGCGR; [3]) | EC50 (hGCGR; [4]) | Emax (hGIPR; [5]) | Emax (hGIPR; [6]) | EC50 (hGIPR; [7]) | Emax (hGLP-1R; HEK293, read-out: hGLP-1R Emax, % ± SEM, cAMP, 37° C., 0.1% bovine casein and 1.0% human serum albumin, percent of maximal response to GLP-1(7-36)NH2) | EC50 (hGLP-1R; [8]) | EC50 (hGLP-1R; hGLP-1R EC50, nM (SEM, n), cAMP, 37° C., 0.1% bovine casein and 1.0% human serum albumin, geometric mean (SEM, n)) | EC50 (hGCGR; cAMP, 37° C., 0.1% bovine casein (no human serum albumin), geometric mean, read-out: hGCGR EC50, nM (SEM, n)) | Emax (hGIPR; HEK293, cAMP, 37° C., 0.1% bovine casein, arithmetic mean, read-out: hGIPR Emax, % ± SEM) | EC50 (hGIPR; cAMP, 37° C., 0.1% bovine casein (no human serum albumin), read-out: hGIPR EC50, nM (SEM, n)) | EC50 (hGLP-1R; cAMP, 37° C., 0.1% bovine casein (no human serum albumin), geometric mean, read-out: hGLP-1R EC50, nM (SEM, n)) | Emax (hGLP-1R; HEK293, read-out: hGLP-1R Emax, % ± SEM, cAMP, 37° C., 0.1% bovine casein, percent of maximal response to GLP-1(7-36)NH2, arithmetic mean)
CCCCCCCCCCCCCCCC(=O)N[C@@H](CCC(=O)NCCOCCOCC(=O)NCCOCCOCC(=O)NCCOCCOCC(=O)NCCCC[C@H](NC(=O)CNC(=O)CNC(=O)[C@H](CCC(=O)O)NC(=O)[C@@H](NC(=O)[C@H](CC(C)C)NC(=O)[C@](C)(Cc1ccc(O)cc1)NC(=O)[C@@H](CCC(=O)O)NC(=O)[C@@H](NC(=O)[C@H](Cc1ccccc1)NC(=O)[C@H](CCC(=O)O)NC(=O)C(C)(C)NC(=O)[C@H](CCC(N)=O)NC(=O)[C@H](C)NC(=O)[C@H](CCCCNC(=O)COCCOCCNC(=O)COCCOCCNC(=O)COCCOCCNC(=O)CC[C@H](NC(=O)CCCCCCCCCCCCCCC)C(=O)O)NC(=O)[C@H](CCCN)NC(=O)[C@H](CC(=O)O)NC(=O)[C@H](CC(C)C)NC(=O)[C@](C)(CC(C)C)NC(=O)[C@@H](NC(=O)[C@H](CO)NC(=O)[C@H](Cc1ccncc1)NC(=O)[C@H](CC(=O)O)NC(=O)[C@H](CO)NC(=O)[C@@H](NC(=O)[C@](C)(Cc1ccccc1F)NC(=O)[C@@H](NC(=O)CNC(=O)[C@H](CCC(=O)O)NC(=O)C(C)(C)NC(=O)[C@@H](N)Cc1ccc(O)cc1)[C@@H](C)O)[C@@H](C)O)[C@@H](C)CC)[C@@H](C)CC)[C@@H](C)CC)C(=O)N[C@@H](CO)C(=O)N[C@@H](CO)C(=O)NCC(=O)N[C@@H](C)C(=O)N1CCC[C@H]1C(=O)N1CCC[C@H]1C(=O)N1CCC[C@H]1C(=O)N[C@@H](CO)C(N)=O)C(=O)O [Example 31] | > 9950 nM | > 9950 nM | 0.147 nM | 88.9% | 0.545 nM | 109 ± 7.91% | 91.3 ± 16.1% | – | – | – | – | – | – | – | – | – | – | – | – | –
CC[C@H](C)[C@H](NC(=O)[C@H](CCCN)NC(=O)[C@H](CC(=O)O)NC(=O)[C@H](CC(C)C)NC(=O)[C@](C)(CC(C)C)NC(=O)[C@@H](NC(=O)C(C)(C)NC(=O)[C@@H](NC(=O)[C@H](CC(=O)O)NC(=O)[C@H](CO)NC(=O)[C@@H](NC(=O)[C@](C)(Cc1ccccc1F)NC(=O)[C@@H](NC(=O)CNC(=O)[C@H](CCC(=O)O)NC(=O)C(C)(C)NC(=O)[C@@H](N)Cc1ccc(O)cc1)[C@@H](C)O)[C@@H](C)O)C(C)C)[C@@H](C)CC)C(=O)N[C@@H](C)C(=O)N[C@@H](CCC(N)=O)C(=O)NC(C)(C)C(=O)N[C@@H](CCCN)C(=O)N[C@@H](Cc1ccccc1)C(=O)N[C@H](C(=O)N[C@@H](CCCCNC(=O)COCCOCCNC(=O)COCCOCCNC(=O)CC[C@H](NC(=O)CCCCCCCCCOc1ccc(C(=O)O)cc1)C(=O)O)C(=O)N[C@@](C)(Cc1ccc(O)cc1)C(=O)N[C@@H](CC(C)C)C(=O)N[C@H](C(=O)N[C@@H](CCCCNC(=O)COCCOCCNC(=O)COCCOCCNC(=O)CC[C@H](NC(=O)CCCCCCCCCOc1ccc(C(=O)O)cc1)C(=O)O)C(=O)NCC(=O)NCC(=O)N1CCC[C@H]1C(=O)N[C@@H](CO)C(=O)N[C@@H](CO)C(=O)NCC(=O)N[C@@H](C)C(=O)N1CCC[C@H]1C(=O)N1CCC[C@H]1C(=O)N1CCC[C@H]1C(=O)N[C@@H](CO)C(N)=O)[C@@H](C)CC)[C@@H](C)CC [Example 356] | – | – | – | – | – | – | – | > 9950 nM | > 9950 nM | 82.7% | 96.2% | 0.0488 nM | 93% | 0.936 nM | 23.4 nM | – | – | – | – | –
CC[C@H](C)[C@H](NC(=O)[C@H](CC(C)C)NC(=O)[C@](C)(Cc1ccc(O)cc1)NC(=O)[C@@H](CCC(=O)O)NC(=O)[C@@H](NC(=O)[C@H](Cc1ccccc1)NC(=O)[C@H](CCCCNC(=O)COCCOCCNC(=O)COCCOCCNC(=O)CCCCCCCCCCCCC(=O)O)NC(=O)C(C)(C)NC(=O)[C@H](CCC(N)=O)NC(=O)[C@H](C)NC(=O)[C@H](CCCCNC(=O)COCCOCCNC(=O)COCCOCCNC(=O)CCCCCCCCCCCCC(=O)O)NC(=O)[C@H](CCCN)NC(=O)[C@H](CC(=O)O)NC(=O)[C@H](CC(C)C)NC(=O)[C@](C)(CC(C)C)NC(=O)[C@@H](NC(=O)[C@H](CO)NC(=O)[C@H](CCc1ccc(O)cc1)NC(=O)[C@H](CC(=O)O)NC(=O)[C@H](CO)NC(=O)[C@@H](NC(=O)[C@](C)(Cc1ccccc1F)NC(=O)[C@@H](NC(=O)CNC(=O)[C@H](CCC(=O)O)NC(=O)C(C)(C)NC(=O)[C@@H](N)Cc1ccc(O)cc1)[C@@H](C)O)[C@@H](C)O)[C@@H](C)CC)[C@@H](C)CC)C(=O)N[C@@H](CCC(=O)O)C(=O)NCC(=O)NCC(=O)N1CCC[C@H]1C(=O)N[C@@H](CO)C(=O)N[C@@H](CO)C(=O)NCC(=O)N[C@@H](C)C(=O)N1CCC[C@H]1C(=O)N1CCC[C@H]1C(=O)N1CCC[C@H]1C(=O)N[C@@H](CO)C(N)=O [Example 272] | > 9950 nM | – | – | 81.2% | – | – | – | – | – | – | – | – | – | – | – | > 9950 nM | 86% | 0.0264 nM | 0.388 nM | –
CC[C@H](C)[C@H](NC(=O)[C@H](CCCN)NC(=O)[C@H](CC(=O)O)NC(=O)[C@H](CC(C)C)NC(=O)[C@](C)(CC(C)C)NC(=O)[C@@H](NC(=O)C(C)(C)NC(=O)[C@@H](NC(=O)[C@H](CC(=O)O)NC(=O)[C@H](CO)NC(=O)[C@@H](NC(=O)[C@](C)(Cc1ccccc1F)NC(=O)[C@@H](NC(=O)CNC(=O)[C@H](CCC(=O)O)NC(=O)C(C)(C)NC(=O)[C@@H](N)Cc1ccc(O)cc1)[C@@H](C)O)[C@@H](C)O)C(C)C)[C@@H](C)CC)C(=O)N[C@@H](C)C(=O)N[C@@H](CCC(N)=O)C(=O)NC(C)(C)C(=O)N[C@@H](CCCCNC(=O)COCCOCCNC(=O)COCCOCCNC(=O)CC[C@H](NC(=O)CCCCCCCCCOc1ccc(C(=O)O)cc1)C(=O)O)C(=O)N[C@@H](Cc1ccccc1)C(=O)N[C@H](C(=O)N[C@H](CCC(=O)O)C(=O)N[C@@](C)(Cc1ccc(O)cc1)C(=O)N[C@@H](CC(C)C)C(=O)N[C@H](C(=O)N[C@@H](CCC(=O)O)C(=O)NCC(=O)NCC(=O)N1CCC[C@H]1C(=O)N[C@@H](CO)C(=O)N[C@@H](CO)C(=O)NCC(=O)N[C@@H](C)C(=O)N1CCC[C@H]1C(=O)N1CCC[C@H]1C(=O)N1CCC[C@H]1C(=O)N[C@@H](CO)C(=O)N[C@@H](CCCCNC(=O)COCCOCCNC(=O)COCCOCCNC(=O)CC[C@H](NC(=O)CCCCCCCCCOc1ccc(C(=O)O)cc1)C(=O)O)C(N)=O)[C@@H](C)CC)[C@@H](C)CC [Example 383] (H-Y[Aib]EGT[αMePhe(2-F)]TSDV[Aib]I[αMeL]LD[Orn]IAQ[Aib]K([AEEA-AEEA-γGlu-Decanoyl(10-(4-HOOC-PhO))])FI[dE][αMeY]LIEGGPSSGAPPPSK([AEEA-AEEA-γGlu-Decanoyl(10-(4-HOOC-PhO))])-NH2) | – | – | – | – | – | – | – | > 9950 nM | > 9950 nM | 82.8% | 100% | 0.0147 nM | – | 0.306 nM | – | – | – | – | – | 105%
